Values quoted from earlier work, collected in paper PMC3828007 (CPT: Pharmacometrics & Systems Pharmacology, 2013).
pEC50: −log10 of the molar value.

What was measured:
NET (plasma DHPG) = conditions: read-out: in vivo EC50 for inhibitory effect on plasma DHPG

SMILES	pEC50 (NET (plasma DHPG))	CYP inhibition liability (CYP)
COc1ccc(C(CN(C)C)C2(O)CCCCC2)cc1 (centres unmarked) [venlafaxine]	–	moderate
